Assay results reported in PubChem BioAssay AID1963842 (Molecular Pharmacology Branch, DTP, NCI, 2024).

System: 677734-321-R-J1-PDC complex spheroid viability
Test: Anticancer human tumor 677734-321-R-J1-PDC patient-derived soft tissue sarcoma cell line growth inhibition [POLQ]
Settings: for IC50: curve of first compound; for viability, T/C: stronger effect = lower value; active = viability on the fitted dose curve at most 10% of control; inactive = the rest
Summary of the method: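 Patient-derived tumour cells were co-cultured with HUVEC and mesenchymal stem cells as multicellular spheroids at 37 °C. They were treated with POLQ inhibitors (novobiocin, ART-558, RP6685) alone or combined with other agents. Top concentrations were at or near clinical Cmax (otherwise 10 microM; SN-38 at 1 microM), decreasing in half-log steps.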

[1] = second compound 0.0316 µM, first compound 0.00316 µM
[2] = second compound 0.0316 µM, first compound 0.01 µM
[3] = second compound 0.0316 µM, first compound 0.0316 µM
[4] = second compound 0.0316 µM, first compound 0.1 µM
[5] = second compound 0.1 µM, first compound 0.00316 µM
[6] = second compound 0.1 µM, first compound 0.01 µM
[7] = second compound 0.1 µM, first compound 0.0316 µM
[8] = second compound 0.1 µM, first compound 0.1 µM
[9] = second compound 0.316 µM, first compound 0.00316 µM
[10] = second compound 0.316 µM, first compound 0.01 µM
[11] = second compound 0.316 µM, first compound 0.0316 µM
[12] = second compound 0.316 µM, first compound 0.1 µM
[13] = second compound 1 µM, first compound 0.00316 µM
[14] = second compound 1 µM, first compound 0.01 µM
[15] = second compound 1 µM, first compound 0.0316 µM
[16] = second compound 1 µM, first compound 0.1 µM
[17] = second compound 3.16 µM, first compound 0.00316 µM
[18] = second compound 3.16 µM, first compound 0.01 µM
[19] = second compound 3.16 µM, first compound 0.0316 µM
[20] = second compound 3.16 µM, first compound 0.1 µM
[21] = second compound 10 µM, first compound 0.00316 µM
[22] = second compound 10 µM, first compound 0.01 µM
[23] = second compound 10 µM, first compound 0.0316 µM
[24] = second compound 10 µM, first compound 0.1 µM
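Also: spheroids exposed to compounds for one week.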
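For viability, T/C in this document: 100% = vehicle DMSO treated spheroids.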

COc1cccc(OCCCN)c1-c1cc(Nc2cnc(C#N)cn2)n[nH]1 + COC1C(OC(N)=O)C(O)C(Oc2ccc3c(O)c(NC(=O)c4ccc(O)c(CC=C(C)C)c4)c(=O)oc3c2C)OC1(C)C
7.45 nM: IC50 (second compound 0.0316 µM)
7.37 nM: IC50 (second compound 3.16 µM)
7.32 nM: IC50 (second compound 10 µM)
8.14 nM: IC50 (second compound 1 µM)
inactive: viability, T/C [1] 97.1% | viability, T/C [2] 33.8% | viability, T/C [3] 12.8% | viability, T/C [5] 92.5% | viability, T/C [6] 35.6% | viability, T/C [7] 11.9% | viability, T/C [9] 97.3% | viability, T/C [10] 29% | viability, T/C [11] 14.7% | viability, T/C [13] 102% | viability, T/C [14] 38.5% | viability, T/C [15] 9.9% | viability, T/C [16] 11.4% | viability, T/C (second compound 1 µM, first compound 0.316 µM) 11.9% | viability, T/C (second compound 1 µM, first compound 1 µM) 8.34% | viability, T/C [17] 103% | viability, T/C [18] 30.6% | viability, T/C [19] 11.9% | viability, T/C [20] 9.84% | viability, T/C (second compound 3.16 µM, first compound 0.316 µM) 12.3% | viability, T/C (second compound 3.16 µM, first compound 1 µM) 9.73% | viability, T/C [21] 88.4% | viability, T/C [22] 35.7% | viability, T/C [23] 12.3% | viability, T/C [24] 12% | viability, T/C (second compound 10 µM, first compound 0.316 µM) 10.3% | viability, T/C (second compound 10 µM, first compound 1 µM) 9.04%
7.05 nM: IC50 (second compound 0.316 µM)
7.48 nM: IC50 (second compound 0.1 µM)
active: viability, T/C [4] 9.46% | viability, T/C (second compound 0.0316 µM, first compound 0.316 µM) 8.59% | viability, T/C (second compound 0.0316 µM, first compound 1 µM) 8.45% | viability, T/C [8] 8.91% | viability, T/C (second compound 0.1 µM, first compound 0.316 µM) 9.88% | viability, T/C (second compound 0.1 µM, first compound 1 µM) 7.56% | viability, T/C [12] 9.01% | viability, T/C (second compound 0.316 µM, first compound 0.316 µM) 10.5% | viability, T/C (second compound 0.316 µM, first compound 1 µM) 7.41%

Cn1ncnc1[C@H]1c2n[nH]c(=O)c3cc(F)cc(c23)N[C@@H]1c1ccc(F)cc1 + COC1C(OC(N)=O)C(O)C(Oc2ccc3c(O)c(NC(=O)c4ccc(O)c(CC=C(C)C)c4)c(=O)oc3c2C)OC1(C)C
inactive: viability, T/C (second compound 0.0316 µM, first compound 0.000316 µM) 101% | viability, T/C (second compound 0.0316 µM, first compound 0.001 µM) 103% | viability, T/C [1] 99.7% | viability, T/C [2] 101% | viability, T/C [3] 98.8% | viability, T/C [4] 85.7% | viability, T/C (second compound 0.1 µM, first compound 0.000316 µM) 97.6% | viability, T/C (second compound 0.1 µM, first compound 0.001 µM) 101% | viability, T/C [5] 106% | viability, T/C [6] 101% | viability, T/C [7] 98.5% | viability, T/C [8] 95.2% | viability, T/C (second compound 0.316 µM, first compound 0.000316 µM) 106% | viability, T/C (second compound 0.316 µM, first compound 0.001 µM) 97.8% | viability, T/C [9] 98.5% | viability, T/C [10] 104% | viability, T/C [11] 97.6% | viability, T/C [12] 93.4% | viability, T/C (second compound 1 µM, first compound 0.000316 µM) 109% | viability, T/C (second compound 1 µM, first compound 0.001 µM) 102% | viability, T/C [13] 103% | viability, T/C [14] 104% | viability, T/C [15] 96.3% | viability, T/C [16] 92.5% | viability, T/C (second compound 3.16 µM, first compound 0.000316 µM) 108% | viability, T/C (second compound 3.16 µM, first compound 0.001 µM) 94.7% | viability, T/C [17] 103% | viability, T/C [18] 100% | viability, T/C [19] 106% | viability, T/C [20] 94.4% | viability, T/C (second compound 10 µM, first compound 0.000316 µM) 103% | viability, T/C (second compound 10 µM, first compound 0.001 µM) 100% | viability, T/C [21] 106% | viability, T/C [22] 103% | viability, T/C [23] 99.4% | viability, T/C [24] 93.3%
> 100 nM: IC50 (second compound 0.0316 µM) | IC50 (second compound 0.1 µM) | IC50 (second compound 0.316 µM) | IC50 (second compound 1 µM) | IC50 (second compound 3.16 µM) | IC50 (second compound 10 µM)
